# Reference: patent US10351594B2, “Process for preparing compounds having triple activities of thrombolysis, antithrombosis, and radical scavenging” (Shanghai Lumosa Therapeutics Co., Ltd., priority 2013, dated 2019)
# Entries after “also recorded” stand apart in the source; their conditions may differ. Marks after values point to notes of the source that are not given here.
# System: stroke rats
# Assay: Therapeutic effect in stroke rats (microthrombus injected into the brain, treated at once): Zealonga score and TTC infarction volume
# Assay type: in vivo, SD male rats
# Details: for Neural function scores: Zealonga method, 24 hours after awake, n = 9; for Percentage of infarction volume: cerebral infarction, TTC, n = 7
# Experimental: SD male rats (280-300 g) were randomly divided to UK positive control group at a dose of 20000 IU/kg, blank control group with normal saline solution, compound control group with PAK at a dose of 5 μmol/kg, and compound 5Ak group at a dose of 1 μmol/kg (high), 0.1 μmol/kg (medium), and 0.01 μmol/kg (low). A 10% chloral hydrate solution (400 mg/kg) was injected intraperitoneally into rats for anesthesia. […] The 10 μl blood drawn was placed in a 1 mL EP vial and kept at RT for 30 min to allow the coagulation of blood and then transferred into a −20° C. refrigerator for 1 hour to allow the formation of solid coagulation. 1 hour later, the blood clots were taken out, 1 mL normal saline was added therein, and then the blood clots were broken into relatively uniform microthrombus by a steel spatula. The microthrombus suspension was then transferred into a 1 mL injector for use. […] The common jugular vein was separated, and then injected with UK at the dose of 20000 IU/kg, normal saline solution, or compound 5Ak at the dose of 1 μmol/kg. The vein was ligated. 3 drops of penicillin was dropped on the wound. The wound was sewed, and animals were waited for awake.
# 24 hours after the rats were awake, the degree of damage in neural function was evaluated by the Zealonga method. […] The evaluation results were statistically analyzed and subjected to t-test.
# After the rats were awake for 24 hours and assessed for their degree of damage in neural function by Zealonga method, they were anesthetized with urethane followed by immediate decapitation and removal of the brain. Brain tissues were kept in a −20° C. refrigerator for 2 hours, and coronal sections of about 2 mm were successively sliced from the prefrontal end for a total of 5 sections and then placed into a 2% TTC solution to incubate without light at 37° C. for 30 min. The color change in brain sections was observed: normal brain tissues were stained red by TTC, while ischemic brain tissues appeared in white. Photographs were taken by using a digital camera and processed with image statistics software, and the volume of infarction in brain tissues and the area of normal brain tissues in the coronal sections were calculated. The ratio of the cerebral infarction volume of each group was statistically calculated and subject to t-test.
structure (smiles),measurement,setting,value
"C[C@H](NC(=O)[C@@H]1CCCN1)C(=O)N[C@@H](CCCCN)C(=O)NCCCC[C@H](NC(=O)[C@@H]1Cc2cc(O)c(O)cc2C(C)(C)N1)C(=O)O [Compound 5Ak, 3S-6,7-dihydroxy-1,1-dimethyl-1,2,3,4-tetrahydro-isoquinoline-3-acyl-Lys(Pro-Ala-Lys)]","Therapeutic effect in stroke rats, result in words","5Ak 1, 0.1, 0.01 μmol/kg",effectively prevent the brain ischemia rats from occurrence of dyskinesia and cerebral infarction; also recorded: dose dependent
same,Neural function scores,5Ak 0.01 μmol/kg,2.30 ± 0.95^c
same,Neural function scores,5Ak 0.1 μmol/kg,1.40 ± 1.07^b
same,Neural function scores,5Ak 1 μmol/kg,1.10 ± 0.74^a
same,Percentage of infarction volume,5Ak 0.01 μmol/kg,18.05 ± 5.77^c %
same,Percentage of infarction volume,5Ak 0.1 μmol/kg,9.88 ± 2.52^b %
same,Percentage of infarction volume,5Ak 1 μmol/kg,3.44 ± 1.99^a %
